This data set can be described thus: physchem.

From the text: Log P is a measure of differential solubility of a compound in two solvents. The log ratio of the concentrations of the solute in the solvent is called Log P or the Partition Coefficient. The most well-known of these partition coefficients is based on the solvents Octanol and Water.

By logP is commonly meant a log measure of how a compound divides between an organic and an aqueous phase. Low values mean lower lipophilicity, high ones higher lipophilicity. Compound `CCCCC(CC)COC(=O)C(C#N)=C(c1ccccc1)c1ccccc1` (stereo not shown) [Octocrylene] yielded a logP of about 6.9.

These data come from patent US20080063613A1, “Syndet Bars Having Ultraviolet Radiation Protection” (priority 2004, published 2008).
